# Measured values taken from patent US20260053811A1, “METHODS OF TREATING HYPERTENSION IN OBESE SUBJECTS” (Mineralys Therapeutics, Inc., priority 2022, published 2026).
# System: hypertensive subjects
# Assay: Estimated glomerular filtration rate (eGFR, CKD-EPI equation)
# Format: in vivo, human
# Settings: for Estimated Glomerular Filtration Rate, Mean (SD) Change from Baseline / Estimated Glomerular Filtration Rate, Mean (SD) Observed: Part 1; for Estimated Glomerular Filtration Rate, Mean Change from Baseline / Estimated Glomerular Filtration Rate, Mean Observed: Part 2; for Change in estimated glomerular filtration rate (eGFR): across dosing cohorts
# Description: In contrast, mean eGFR for the Placebo group was relatively stable throughout treatment, reaching a mean maximal reduction of −2.80 mL/min/1.73 m^2 at Week 2 (range: −0.83 mL/min/1.73 m^2 to −2.80 mL/min/1.73 m^2). Estimated glomerular filtration rate was estimated using the CKD-EPI equation.
smiles,measurement,setting,value
CC(=O)N[C@H]1CC[C@H](NC(=O)CN2CCN(c3nncc(-c4ccc(C)cc4)n3)CC2)CC1 [Compound A HBr],"Estimated Glomerular Filtration Rate, Mean (SD) Change from Baseline","Week 3, 100 mg QD",−9.24 (10.99) mL/min/1.73 m^2
same,"Estimated Glomerular Filtration Rate, Mean (SD) Observed","Week 3, 100 mg QD",67.22 (19.24) mL/min/1.73 m^2
same,"Estimated Glomerular Filtration Rate, Mean (SD) Change from Baseline","Week 4, 12.5 mg BID",−6.58 (9.17) mL/min/1.73 m^2
same,"Estimated Glomerular Filtration Rate, Mean (SD) Observed","Week 4, 12.5 mg BID",76.30 (18.28) mL/min/1.73 m^2
same,"Estimated Glomerular Filtration Rate, Mean (SD) Change from Baseline","Week 4, 12.5 mg QD",−5.45 (6.37) mL/min/1.73 m^2
same,"Estimated Glomerular Filtration Rate, Mean (SD) Observed","Week 4, 12.5 mg QD",73.40 (19.29) mL/min/1.73 m^2
same,"Estimated Glomerular Filtration Rate, Mean (SD) Change from Baseline","Week 4, 25 mg BID",−6.69 (8.97) mL/min/1.73 m^2
same,"Estimated Glomerular Filtration Rate, Mean (SD) Observed","Week 4, 25 mg BID",73.48 (15.26) mL/min/1.73 m^2
same,"Estimated Glomerular Filtration Rate, Mean (SD) Change from Baseline","Week 4, 50 mg QD",−3.61 (9.24) mL/min/1.73 m^2
same,"Estimated Glomerular Filtration Rate, Mean (SD) Observed","Week 4, 50 mg QD",73.63 (16.75) mL/min/1.73 m^2
same,"Estimated Glomerular Filtration Rate, Mean (SD) Change from Baseline","Week 4, 100 mg QD",−9.46 (12.53) mL/min/1.73 m^2
same,"Estimated Glomerular Filtration Rate, Mean (SD) Observed","Week 4, 100 mg QD",67.23 (19.70) mL/min/1.73 m^2
same,"Estimated Glomerular Filtration Rate, Mean (SD) Change from Baseline","Week 5, 12.5 mg BID",−7.58 (8.00) mL/min/1.73 m^2
same,"Estimated Glomerular Filtration Rate, Mean (SD) Observed","Week 5, 12.5 mg BID",73.84 (20.78) mL/min/1.73 m^2
same,"Estimated Glomerular Filtration Rate, Mean (SD) Change from Baseline","Week 5, 12.5 mg QD",−3.60 (5.70) mL/min/1.73 m^2
same,"Estimated Glomerular Filtration Rate, Mean (SD) Observed","Week 5, 12.5 mg QD",75.25 (19.58) mL/min/1.73 m^2
same,"Estimated Glomerular Filtration Rate, Mean (SD) Change from Baseline","Week 5, 25 mg BID",−7.41 (9.65) mL/min/1.73 m^2
same,"Estimated Glomerular Filtration Rate, Mean (SD) Observed","Week 5, 25 mg BID",73.25 (14.75) mL/min/1.73 m^2
same,"Estimated Glomerular Filtration Rate, Mean (SD) Change from Baseline","Week 5, 50 mg QD",−4.10 (9.61) mL/min/1.73 m^2
same,"Estimated Glomerular Filtration Rate, Mean (SD) Observed","Week 5, 50 mg QD",70.58 (13.23) mL/min/1.73 m^2
same,"Estimated Glomerular Filtration Rate, Mean (SD) Change from Baseline","Week 5, 100 mg QD",−10.50 (10.94) mL/min/1.73 m^2
same,"Estimated Glomerular Filtration Rate, Mean (SD) Observed","Week 5, 100 mg QD",66.19 (19.58) mL/min/1.73 m^2
same,"Estimated Glomerular Filtration Rate, Mean (SD) Change from Baseline","Week 6, 12.5 mg BID",−6.45 (8.05) mL/min/1.73 m^2
same,"Estimated Glomerular Filtration Rate, Mean (SD) Observed","Week 6, 12.5 mg BID",74.70 (16.86) mL/min/1.73 m^2
same,"Estimated Glomerular Filtration Rate, Mean (SD) Change from Baseline","Week 6, 12.5 mg QD",−6.28 (6.77) mL/min/1.73 m^2
same,"Estimated Glomerular Filtration Rate, Mean (SD) Observed","Week 6, 12.5 mg QD",73.39 (20.48) mL/min/1.73 m^2
same,"Estimated Glomerular Filtration Rate, Mean (SD) Change from Baseline","Week 6, 25 mg BID",−8.02 (9.17) mL/min/1.73 m^2
same,"Estimated Glomerular Filtration Rate, Mean (SD) Observed","Week 6, 25 mg BID",72.64 (15.33) mL/min/1.73 m^2
same,"Estimated Glomerular Filtration Rate, Mean (SD) Change from Baseline","Week 6, 50 mg QD",−2.83 (8.61) mL/min/1.73 m^2
same,"Estimated Glomerular Filtration Rate, Mean (SD) Observed","Week 6, 50 mg QD",74.63 (16.59) mL/min/1.73 m^2
same,"Estimated Glomerular Filtration Rate, Mean (SD) Change from Baseline","Week 6, 100 mg QD",−9.94 (12.91) mL/min/1.73 m^2
same,"Estimated Glomerular Filtration Rate, Mean (SD) Observed","Week 6, 100 mg QD",66.19 (21.44) mL/min/1.73 m^2
same,"Estimated Glomerular Filtration Rate, Mean (SD) Change from Baseline","Week 7, 12.5 mg BID",−7.03 (8.98) mL/min/1.73 m^2
same,"Estimated Glomerular Filtration Rate, Mean (SD) Observed","Week 7, 12.5 mg BID",75.85 (21.29) mL/min/1.73 m^2
same,"Estimated Glomerular Filtration Rate, Mean (SD) Change from Baseline","Week 7, 12.5 mg QD",−7.17 (8.80) mL/min/1.73 m^2
same,"Estimated Glomerular Filtration Rate, Mean (SD) Observed","Week 7, 12.5 mg QD",72.50 (22.45) mL/min/1.73 m^2
same,"Estimated Glomerular Filtration Rate, Mean (SD) Change from Baseline","Week 7, 25 mg BID",−7.85 (9.47) mL/min/1.73 m^2
same,"Estimated Glomerular Filtration Rate, Mean (SD) Observed","Week 7, 25 mg BID",72.22 (13.89) mL/min/1.73 m^2
same,"Estimated Glomerular Filtration Rate, Mean (SD) Change from Baseline","Week 7, 50 mg QD",−5.46 (10.42) mL/min/1.73 m^2
same,"Estimated Glomerular Filtration Rate, Mean (SD) Observed","Week 7, 50 mg QD",69.68 (12.23) mL/min/1.73 m^2
same,"Estimated Glomerular Filtration Rate, Mean (SD) Change from Baseline","Week 7, 100 mg QD",−9.50 (12.17) mL/min/1.73 m^2
same,"Estimated Glomerular Filtration Rate, Mean (SD) Observed","Week 7, 100 mg QD",66.96 (21.02) mL/min/1.73 m^2
same,"Estimated Glomerular Filtration Rate, Mean (SD) Change from Baseline","Week 8, 12.5 mg BID",−6.66 (7.92) mL/min/1.73 m^2
same,"Estimated Glomerular Filtration Rate, Mean (SD) Observed","Week 8, 12.5 mg BID",76.32 (19.63) mL/min/1.73 m^2
same,"Estimated Glomerular Filtration Rate, Mean (SD) Change from Baseline","Week 8, 12.5 mg QD",−3.67 (8.10) mL/min/1.73 m^2
same,"Estimated Glomerular Filtration Rate, Mean (SD) Observed","Week 8, 12.5 mg QD",76.00 (21.00) mL/min/1.73 m^2
same,"Estimated Glomerular Filtration Rate, Mean (SD) Change from Baseline","Week 8, 25 mg BID",−5.55 (9.22) mL/min/1.73 m^2
same,"Estimated Glomerular Filtration Rate, Mean (SD) Observed","Week 8, 25 mg BID",75.11 (14.81) mL/min/1.73 m^2
same,"Estimated Glomerular Filtration Rate, Mean (SD) Change from Baseline","Week 8, 50 mg QD",−4.64 (9.87) mL/min/1.73 m^2
same,"Estimated Glomerular Filtration Rate, Mean (SD) Observed","Week 8, 50 mg QD",72.54 (16.89) mL/min/1.73 m^2
same,"Estimated Glomerular Filtration Rate, Mean (SD) Change from Baseline","Week 8, 100 mg QD",−7.83 (11.62) mL/min/1.73 m^2
same,"Estimated Glomerular Filtration Rate, Mean (SD) Observed","Week 8, 100 mg QD",68.42 (20.14) mL/min/1.73 m^2
same,"Estimated Glomerular Filtration Rate, Mean Change from Baseline","Week 1, 100 mg QD",−9.65 mL/min/1.73 m^2
same,"Estimated Glomerular Filtration Rate, Mean Observed","Week 1, 100 mg QD",70.73 mL/min/1.73 m^2
same,"Estimated Glomerular Filtration Rate, Mean Change from Baseline","Week 2, 100 mg QD",−8.05 mL/min/1.73 m^2
same,"Estimated Glomerular Filtration Rate, Mean Observed","Week 2, 100 mg QD",72.07 mL/min/1.73 m^2
same,"Estimated Glomerular Filtration Rate, Mean Change from Baseline","Week 3, 100 mg QD",−7.33 mL/min/1.73 m^2
same,"Estimated Glomerular Filtration Rate, Mean Observed","Week 3, 100 mg QD",72.69 mL/min/1.73 m^2
same,"Estimated Glomerular Filtration Rate, Mean Change from Baseline","Week 4, 100 mg QD",−7.20 mL/min/1.73 m^2
same,"Estimated Glomerular Filtration Rate, Mean Observed","Week 4, 100 mg QD",72.92 mL/min/1.73 m^2
same,"Estimated Glomerular Filtration Rate, Mean Change from Baseline","Week 5, 100 mg QD",−8.69 mL/min/1.73 m^2
same,"Estimated Glomerular Filtration Rate, Mean Observed","Week 5, 100 mg QD",71.23 mL/min/1.73 m^2
same,"Estimated Glomerular Filtration Rate, Mean Change from Baseline","Week 6, 100 mg QD",−10.87 mL/min/1.73 m^2
same,"Estimated Glomerular Filtration Rate, Mean Observed","Week 6, 100 mg QD",68.04 mL/min/1.73 m^2
same,"Estimated Glomerular Filtration Rate, Mean Change from Baseline","Week 7, 100 mg QD",−7.34 mL/min/1.73 m^2
same,"Estimated Glomerular Filtration Rate, Mean Observed","Week 7, 100 mg QD",72.82 mL/min/1.73 m^2
same,"Estimated Glomerular Filtration Rate, Mean Change from Baseline","Week 8, 100 mg QD",−7.95 mL/min/1.73 m^2
same,"Estimated Glomerular Filtration Rate, Mean Observed","Week 8, 100 mg QD",72.43 mL/min/1.73 m^2
same,Change in estimated glomerular filtration rate (eGFR),,dose-dependent and reversible reduction in eGFR
same,Change in estimated glomerular filtration rate (eGFR),listed as lorundrostat,dose-dependent and reversible reduction in eGFR
